# Test results from US9260418B2, “Pyranyl aryl methyl benzoquinolinone M1 receptor positive allosteric modulators” (Merck Sharp & Dohme Corp., priority 2009, dated 2016).
# Biological target: T1, acetylcholine muscarinic M1 receptor (Homo sapiens, UniProt P11229)
# T1 construct: expressed in transfected cells; host or cells: CHOnfat cells (CHO), under Geneticin selection; b382 calls them CHOK1/hM1
# T1 sequence (P11229 1-460): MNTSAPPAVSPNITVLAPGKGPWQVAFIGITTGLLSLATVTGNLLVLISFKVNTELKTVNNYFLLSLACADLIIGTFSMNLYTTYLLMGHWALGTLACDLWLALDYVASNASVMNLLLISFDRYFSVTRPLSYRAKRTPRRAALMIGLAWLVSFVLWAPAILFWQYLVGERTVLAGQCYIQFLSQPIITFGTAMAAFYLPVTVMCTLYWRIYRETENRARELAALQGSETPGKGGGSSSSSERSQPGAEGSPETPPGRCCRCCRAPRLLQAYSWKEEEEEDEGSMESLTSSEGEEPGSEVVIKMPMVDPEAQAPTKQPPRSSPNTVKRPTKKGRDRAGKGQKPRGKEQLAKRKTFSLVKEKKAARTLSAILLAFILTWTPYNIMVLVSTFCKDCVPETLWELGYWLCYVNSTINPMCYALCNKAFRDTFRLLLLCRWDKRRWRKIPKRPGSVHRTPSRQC
# Assay: muscarinic FLIPR intracellular calcium assay, potentiation of EC20 acetylcholine in CHOnfat/hM1 cells
# Assay type: cell-based
# Settings: inflection point calculated from FLIPR values, 4 min preincubation, then EC20 acetylcholine (3 nM final), read-out: IP Value
# Experimental: The assay studies the effect of one or several concentrations of test compounds on basal or acetylcholine-stimulated Ca^2+ levels using FLIPR.
# Compounds are prepared and subjected to a preincubation period of 4 min. Thereafter, a single EC20 concentration of acetylcholine is added to each well (3 nM final). The intracellular Ca^2+ level of each sample is measured and compared to an acetylcholine control to determine any modulatory activity.
# Cells: CHOnfat/hM1, hM2, hM3 or hM4 cells are plated 24 hr before the assay at a density of 18,000 cells/well (100 μL) in a 384 well plate. CHOnfat/hM1 and CHOnfat/hM3 Growth Medium: 90% DMEM (Hi Glucose); 10% HI FBS; 2 mM L-glutamine; 0.1 mM NEAA; Pen-Strep; and 1 mg/ml Geneticin, are added. For M2Gqi5CHOnfat and M4Gqi5CHOnfat cells, an additional 600 ug/ml hygromycin is added.
# Equipment: 384 well plate, 120 μL addition plate; 96-well Whatman 2 ml Uniplate Incubator, 37° C., 5% CO2; Skatron EMBLA-384 Plate Washer; Multimek Pipetting System; Genesis Freedom 200 System; Mosquito System; Temo Nanolitre Pipetting System; and FLIPR^384 Fluorometric Imaging Plate Reader System are used.
# Buffers. Assay Buffer: Hanks Balanced Salt Solution, with 20 mM Hepes, 2.5 mM Probenecid (Sigma P-8761) first dissolved in 1 N NaOH, 1% Bovine Serum Albumin (Sigma A-9647). Dye Loading Buffer: Assay Buffer plus 1% Fetal Bovine Serum and Fluo-4AM/Pluronic Acid Mixture. 2 mM Fluo-4AM ester stock in DMSO (Molecular Probes F-14202) Concentration of 2 μM in buffer for a final concentration of 1 μM in Assay. 20% Pluronic Acid Solution stock, with concentration of 0.04% in Buffer, 0.02% in Assay.
# 65 μL of 2 mM Fluo-4AM are mixed with 130 μL of 20% Pluronic Acid. The resulting solution and 650 μL FBS is added to the assay buffer for a total volume of 65 mL. Positive Controls: 4-Br-A23187: 10 mM in DMSO; final concentration 10 μM. Acetylcholine: 10 mM in water, working stock at both 20 μM and 30 μM in assay buffer, final concentration of 10 μM. This is used to check the maximum stimulation of the CHOK1/hM1 cells. 20 μM (2×) acetylcholine is added in the preincubation part of the assay, and the 30 μM (3×) stock is added in the second part. (EC20)Acetylcholine: 10 mM in water, working stock of 9 nM (3×), and final concentration in assay is 3 nM. This is used after the preincubation with test compounds. Addition of the EC20 Acetylcholine to each well with a test compound will ascertain any modulator activity. 24 wells contain 3 nM Acetylcholine alone as a control.
# Screening Plate: Compounds are titrated in 96-well plates (columns 2-11), 100% DMSO, started at a concentration of 15 mM (150× stock concentration), and 3-fold serial dilutions using Genesis Freedom200 System. Four 96-well plates are combined into a 384-well plate using Mosquito Nanolitre Pipetting System by transferring 1 μl of serial diluted compounds to each well, and 1 mM acetylcholine (100× stock concentration) were added as a control. Using Temo, 49 μl assay buffer is added to each well of the 384-well plate right before assay.
# In a 96-well Whatman 2 ml Uniplate, 9 nM Acetylcholine (3×) is pipetted into wells corresponding to the screening compounds, and into control wells. The 30 μM acetylcholine control (3×) is added into control wells, and the 3× agonist plate is transferred into a 384 well plate.
# Cells are washed three times with 100 μL of buffer, leaving 30 μL of buffer in each well. Using Multimek, 30 μL of Dye Loading Buffer is added into each well and incubated at 37° C., 5% CO2 for up to one hr.
# After 60 min, the cells are washed three times with 100 μL of buffer, leaving 30 μL of buffer in each well. The cell plate, screening plate, and agonist addition plates are placed on the platform in the FLIPR and the door closed. A signal test to check background fluorescence and basal fluorescence signal is performed. Laser intensity is adjusted if necessary. […]
row,SMILES,EC50
1,"COC(C)(C)c1ccc(Cc2cc3c(=O)n([C@H]4CCOC[C@@H]4O)cnc3c3ccccc23)cn1 [Example 20, 3-[(3R,4S)-3-Hydroxytetrahydro-2H-pyran-4-yl]-6-{[6-(1-methoxy-1-methylethyl)pyridine-3-yl]methyl}benzo[h]quinazolin-4(3H)-one]",0.045 µM
2,"O=c1c2cc(Cc3ccc(CO)nc3)c3ccccc3c2ncn1[C@H]1CCOC[C@@H]1O [Example 21, 6-{[6-(Hydroxymethyl)pyridine-3-yl]methyl}-[(3R,4S)-3-hydroxytetrahydro-2H-pyran-4-yl]benzo[h]quinazolin-4(3H)-one]",0.028 µM
3,"O=c1c2cc(Cc3ccc(CF)nc3)c3ccccc3c2ncn1[C@H]1CCOC[C@@H]1O [Example 22, 6-{[6-(Fluoromethyl)pyridine-3-yl]methyl}-3-[(3R,4S)-3-hydroxytetrahydro-2H-pyran-4-yl]benzo[h]quinazolin-4(3H)-one]",0.023 µM
4,"O=c1c2cc(Cc3ccc(C(F)F)nc3)c3ccccc3c2ncn1[C@H]1CCOC[C@@H]1O [Example 23, 6-{[6-(Difluoromethyl)pyridine-3-yl]methyl}-3-[(3R,4S)-3-hydroxytetrahydro-2H-pyran-4-yl]benzo[h]quinazolin-4(3H)-one]",0.014 µM
5,"O=c1c2cc(Cc3cc[n+]([O-])c(Cl)c3)c3ccccc3c2ncn1[C@H]1CCOC[C@@H]1O [Example 24, 6-[(2-Chloro-1-oxidopyridin-4-yl)methyl]-3-[(3R,4S)-3-hydroxytetrahydro-2H-pyran-4-yl]benzo[h]quinazolin-4(3H)-one]",0.058 µM
6,"O=c1c2cc(Cc3ccnc(F)c3)c3ccccc3c2ncn1[C@H]1CCOC[C@@H]1O [Example 25, 6-[(2-Fluoropyridin-4-yl)methyl]-3-[(3R,4S)-3-hydroxytetrahydro-2H-pyran-4-yl]benzo[h]quinazolin-4(3H)-one]",0.015 µM
7,"COc1cc(Cc2cc3c(=O)n([C@H]4CCOC[C@@H]4O)cnc3c3ccccc23)ccn1 [Example 26, 3-[(3R,4S)-3-Hydroxytetrahydro-2H-pyran-4-yl]-6-[(2-methoxypyridin-4-yl)methyl]benzo[h]quinazolin-4(3H)-one]",0.034 µM
8,"CCOc1ccc(Cc2cc3c(=O)n([C@H]4CCOC[C@@H]4O)cnc3c3ccccc23)cn1 [Example 27, 6-[(6-Ethyoxypyridin-3-yl)methyl]-3-[(3R,4S)-3-hydroxytetrahydro-2H-pyran-4-yl]benzo[h]quinazolin-4(3H)-one]",0.027 µM
9,"O=c1c2cc(Cc3ccc(O)nc3)c3ccccc3c2ncn1[C@H]1CCOC[C@@H]1O [Example 28, 6-[(6-Hydroxypyridin-3-yl)methyl]-3-[(3R,4S)-3-hydroxytetrahydro-2H-pyran-4-yl]benzo[h]quinazolin-4(3H)-one]",0.027 µM

# Continued, values first:
row,EC50,SMILES
1,0.039 µM,"O=c1c2cc(Cc3ccc(OC(F)F)nc3)c3ccccc3c2ncn1[C@H]1CCOC[C@@H]1O [Example 29, 6-{[6-(Difluoromethoxy)pyridine-3-yl]methyl}-3-[(3R,4S)-3-hydroxytetrahydro-2H-pyran-4-yl]benzo[h]quinazolin-4(3H)-one]"
2,0.077 µM,"O=c1c2cc(Cc3ccnc(OC(F)F)c3)c3ccccc3c2ncn1[C@H]1CCOC[C@@H]1O [Example 30, 6-{[2-(Difluoromethoxy)pyridine-4-yl]methyl}-3-[(3R,4S)-3-hydroxytetrahydro-2H-pyran-4-yl]benzo[h]quinazolin-4(3H)-one]"
3,0.275 µM,"Cn1cc(Br)c2c(Cc3cc4c(=O)n([C@H]5CCOC[C@@H]5O)cnc4c4ccccc34)ccnc21 [Example 31, 6-[(3-Bromo-1-methyl-1H-pyrrolo[2,3-b]pyridine-4-yl)methyl]-3-[(3R,4S)-3-hydroxytetrahydro-2H-pyran-4-yl]benzo[h]quinazolin-4(3H)-one]"
4,0.032 µM,"CCn1ccc2c(Cc3cc4c(=O)n([C@H]5CCOC[C@@H]5O)cnc4c4ccccc34)ccnc21 [Example 32, 6-[(1-Ethyl-1H-pyrrolo[2,3-b]pyrdin-4-yl)methyl]-3-[(3R,4S)-3-hydroxytetrahydro-2H-pyran-4-yl]benzo[h]quinazolin-4(3H)-one]"
5,0.01 µM,"O=c1c2cc(Cc3ccc(Cl)nc3)c3ccccc3c2ncn1[C@H]1CCSC[C@@H]1O [Example 33, 6-[(6-Chloropyridin-3-yl)methyl]-3-[(3R,4S)-3-hydroxytetrahydro-2H-thiopyran-4-yl]benzo[h]quinazolin-4(3H)-one]"
6,0.0071 µM,"Cc1ccc(-c2ccc(Cc3cc4c(=O)n([C@H]5COCC[C@@H]5O)cnc4c4ccccc34)cn2)cn1 [Example 34, 3-[(3S,4S)-4-Hydroxytetrahydro-2H-pyran-3-yl]-6-[(6′-methyl-2,3-bipyridin-5-yl)methyl]benzo[h]quinazolin-4(3H)-one]"
7,4.8 µM,"O=c1c2cc(Cc3ccc(Cl)nc3)c3ccccc3c2ncn1C1CCNCC1 [Example 37, 6-[(6-Chloropyridin-3-yl)methyl]-3-piperidin-4-ylbenzo[h]quinazolin-4(3H)-one]"
